Results as given in patent publication US20110045101A1, “FUNGICIDAL SUBSTITUTED AZOLES” (E.I. Du Pont De Nemours and Company, priority 2009, published 2011).
Marks after values point to notes of the source that are not given here.

How the values were obtained:
Type in all cases: in vivo
Conditions in all cases: 100 = 100% disease control, 0 = no control
Botrytis cinerea = assay: Test C: tomato Botrytis on tomato seedlings, sprayed the day before inoculation, visual disease rating
In short: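 Disease ratings refer to tomato seedlings treated by run-off spraying with compound suspensions, mostly 200 ppm (500 g/ha equivalent) and in marked cases 40 ppm. Carrier: acetone/purified water 50/50 with 250 ppm polyhydric alcohol ester surfactant, after predissolving in acetone.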

Alternaria solani = assay: Test D: tomato early blight, sprayed the day before inoculation, visual disease rating
In short: (§1)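 Acetone solution (3% of final volume) of each compound is suspended in 50/50 acetone/water with 250 ppm Trem® 014. Plants are sprayed to run-off at 200 ppm, equivalent to 500 g/ha, or at 40 ppm for starred values.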

Septoria nodorum = assay: Test F: wheat glume blotch on wheat seedlings, sprayed the day before inoculation, visual disease rating
In short: as §1

Septoria tritici = assay: Test G: wheat leaf blotch on wheat seedlings, sprayed the day before inoculation, visual disease rating
In short: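 Wheat seedlings were sprayed to run-off with test suspension (acetone/water plus surfactant), generally 200 ppm (≈500 g/ha), or 40 ppm where marked. Septoria tritici spores were inoculated the next day; plants were held 48 h at 24°C in saturated atmosphere, then 19 days at 20°C before visual disease rating.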

[1] = test system: Puccinia recondita f. sp. tritici; assay: Test I: wheat leaf rust on wheat seedlings, sprayed the day before inoculation, visual disease rating
In short: as §1

[2] = test system: Erysiphe graminis f. sp. tritici; assay: Test J: wheat powdery mildew on wheat seedlings, sprayed the day before inoculation, visual disease rating
In short: as §1

SMILES | Test C disease control rating (Botrytis cinerea; 200 ppm) [%] | Test D disease control rating (Alternaria solani; 200 ppm) [%] | Test F disease control rating (Septoria nodorum; 200 ppm) [%] | Test G disease control rating (Septoria tritici; 200 ppm) [%] | Test I disease control rating ([1]; 200 ppm) [%] | Test J disease control rating ([2]; 200 ppm) [%] | Test C disease control rating (Botrytis cinerea; 40 ppm (marked *)) | Test D disease control rating (Alternaria solani; 40 ppm (marked *)) | Test F disease control rating (Septoria nodorum; 40 ppm (marked *)) | Test G disease control rating (Septoria tritici; 40 ppm (marked *)) | Test I disease control rating ([1]; 40 ppm (marked *)) | Test J disease control rating ([2]; 40 ppm (marked *))
Fc1cc(-n2c(Br)nc(Cl)c2-c2c(F)cccc2Cl)ccc1Cl [compound 203] | 87 | 98 | 87 | 97 | 100 | 99 | – | – | – | – | – | –
Fc1cc(F)c(-n2c(Cl)nc(Cl)c2-c2ccc(Cl)cc2)c(F)c1 [compound 204] | – | – | – | – | – | – | 90* % | 91* % | 0* % | 90* % | 18* % | 26* %
Fc1cc(F)c(-n2cnc(Br)c2-c2ccc(Cl)cc2)c(F)c1 [compound 212] | – | – | – | – | – | – | 40* % | 20* % | 0* % | 0* % | 0* % | 0* %
COc1ccc(Cn2c(Cl)nc(Cl)c2-c2c(F)cccc2F)cc1Cl [compound 213] | 63 | 0 | 0 | 96 | 100 | 42 | – | – | – | – | – | –
COc1cc(F)c(-n2c(Cl)nc(Br)c2-c2ccc(Cl)cc2)c(F)c1 [compound 214] | – | – | – | – | – | – | 100* % | 99* % | 97* % | 94* % | 97* % | 98* %
CSc1ccc(F)c(-c2c(Cl)ncn2-c2ccc(Cl)cc2)c1F [compound 215] | 98 | 85 | 0 | 96 | 68 | 91 | – | – | – | – | – | –
Cc1nc(Br)n(-c2c(F)cccc2F)c1-c1ccc(Cl)cc1 [compound 216] | – | – | – | – | – | – | 99* % | 100* % | 0* % | 96* % | 93* % | 94* %
C=Cc1nc(C)n(-c2ccc(Cl)cc2)c1-c1c(F)cccc1F [compound 217] | – | – | – | – | – | – | 33* % | 57* % | 0* % | 13* % | 0* % | 0* %
Fc1cc(F)c(-n2c(Br)nc(Br)c2-c2ccc(Cl)cc2)c(F)c1 [compound 218] | – | – | – | – | – | – | 99* % | 99* % | 0* % | 91* % | 80* % | 73* %
Fc1cc(-n2c(Br)nc(Cl)c2-c2c(F)ccc(F)c2Cl)ccc1Cl [compound 219] | 98 | 97 | 51 | 96 | 99 | 99 | – | – | – | – | – | –
Fc1cc(-n2c(Cl)nc(Cl)c2-c2c(F)ccc(F)c2Cl)ccc1Cl [compound 220] | 98 | 99 | 0 | 97 | 99 | 100 | – | – | – | – | – | –
Fc1cccc(F)c1-c1c(Cl)nc(Br)n1-c1cccc(Cl)c1 [compound 221] | 99 | 99 | 0 | 95 | 97 | 98 | – | – | – | – | – | –
Fc1cccc(F)c1-c1c(Cl)nc(Cl)n1-c1cccc(Cl)c1 [compound 222] | 99 | 99 | 0 | 99 | 97 | 98 | – | – | – | – | – | –
Fc1cc(-n2c(Br)nc(Cl)c2-c2c(F)cccc2F)ccc1Cl [compound 223] | 99 | 100 | 60 | 98 | 99 | 100 | – | – | – | – | – | –
Cc1ccc(-n2c(Br)nc(Cl)c2-c2c(F)ccc(F)c2F)cc1C [compound 224] | 93 | 51 | 0 | 90 | 80 | 98 | – | – | – | – | – | –
Fc1cc(-n2c(Cl)nc(Cl)c2-c2c(F)cccc2F)ccc1Cl [compound 225] | 96 | 100 | 0 | 98 | 99 | 100 | – | – | – | – | – | –
Cc1ccc(-n2c(Cl)nc(Cl)c2-c2c(F)ccc(F)c2F)cc1C [compound 226] | 76 | 67 | 0 | 88 | 0 | 95 | – | – | – | – | – | –
Cc1ccc(-n2c(Cl)nc(Cl)c2-c2c(F)cccc2Cl)cc1 [compound 227] | 98 | 96 | 0 | 94 | 99 | 99 | – | – | – | – | – | –
Fc1ccc(-n2c(Cl)nc(Cl)c2-c2c(F)cccc2Cl)cc1 [compound 228] | 96 | 99 | 0 | 98 | 94 | 99 | – | – | – | – | – | –
Fc1ccc(-c2c(Cl)nc(Cl)n2-c2ccc(Cl)c(F)c2)c(Cl)c1 [compound 229] | 98 | 99 | 0 | 98 | 89 | 91 | – | – | – | – | – | –
Fc1cc(-n2c(Cl)nc(Cl)c2-c2c(F)cccc2Cl)ccc1Cl [compound 230] | 99 | 97 | 0 | 99 | 94 | 99 | – | – | – | – | – | –
CSc1ccc(F)c(-c2c(Cl)nc(Br)n2-c2ccc(Cl)cc2)c1F [compound 231] | 87 | 61 | 100 | 99 | 96 | 98 | – | – | – | – | – | –
Fc1ccc(SCCl)c(F)c1-c1c(Cl)ncn1-c1ccc(Cl)cc1 [compound 232] | 0 | 0 | 0 | 95 | 9 | 0 | – | – | – | – | – | –
